The source of these data is US7217739B2, “Method for inducing cell death with carbonyl scavengers” (Arizona Board of Regents on behalf of the University of …, priority 2004, dated 2007).

The subject of data set [1] is human A431 cells. The data set can be described thus: Apoptosis in squamous cell carcinoma line A431. It is filed as cell-based. Conditions: 10 mM, 24 hours. As to the method: In each case, 10 mM of the test compound was used, over 24 hours, on human A431 cells, and apoptosis was measured as described, supra.
Data set [2] concerns human melanoma line LOX. The data set can be described thus: Apoptosis by annexin V-FITC/propidium iodide flow cytometry, LOX melanoma. Conditions: LOX cells; continuous 24 hour exposure; D-penicillamine 10 mM. It counts as cell-based. As to the method:
(§1) The murine melanoma cell line B16 was used, as were three human melanoma lines, i.e., G-361, A-375, and LOX. Samples of the cells were exposed to 10 mM of D-penicillamine continuously, over a 24 hour period. Apoptosis was measured using a standard assay, i.e., flow cytometric staining using annexin V-FITC/propidium iodide. As a control, normal human skin fibroblasts, i.e., “CF3” cells, were used.

Data set [3] deals with normal human skin fibroblasts CF3. The data set can be described thus: Apoptosis by annexin V-FITC/propidium iodide flow cytometry, normal CF3 fibroblasts. It is filed as cell-based. As to the method:
as §1
(§2) Malignant human melanoma cells A375, and normal fibroblasts (CF3), were tested, using 10 mM of MEC, with 24 hours of exposure.

The subject of data set [4] is Human HeLa cervical adenocarcinoma cells. In words: Apoptosis in HeLa cervical adenocarcinoma cells. It counts as cell-based. As to the method:
The efficacy of the compounds on other cancers, epithelial cancers in particular, was determined. Human HeLa cervical adenocarcinoma cells were used, and tested with D-penicillamine, at 10 mM, and aminoguanidine, at 25 mM.

Data set [5] deals with murine melanoma cell line B16. The data set can be described thus: Apoptosis by annexin V-FITC/propidium iodide flow cytometry, B16 melanoma. It is filed as cell-based. Particulars: B16 cells; continuous 24 hour exposure; D-penicillamine 10 mM. As to the method: as §1
The subject of data set [6] is human melanoma cell line G-361. In words: Apoptosis by annexin V-FITC/propidium iodide flow cytometry, G-361 melanoma. It is filed as cell-based. Conditions: G-361 cells. As to the method:
as §1
The compound D-penicillamine (D-P), aminoguanidine (AG), N-acetyl-D-penicillamine (NAP), N-acetyl-L-cysteine (NAC), and penicillamine disulfide (PSS) were tested. D-P, NAC and NAP are known as antioxidants. D-P and aminoguanidine are known as carbonyl scavengers.

In data set [7] the test system is CF3 fibroblast in collagen matrix. In words: Dermal melanoma reconstruct, fibroblast network. It counts as cell-based, human. Conditions: 12.5 mM; A375 and CF3 cells embedded in a collagen matrix. The text has this:
(§3) A dermal melanoma reconstruct was made, where both CF3 fibroblast and A375 melanoma cells were embedded in a collagen matrix. Seventy two hours after “seeding” in the matrix, the melanoma cells have proliferated extensively, as the controls show, in FIG. 7.

Data set [8] relates to premalignant, immortalized human keratinocytes HaCaT. The data set can be described thus: Apoptosis in premalignant immortalized keratinocytes. It counts as cell-based. Particulars: HaCaT cells; 12.5 mM; continuous over 24 hours. As to the method:
In these experiments, D-penicillamine was added, at a concentration of 12.5 mM, to premalignant, immortalized human keratinocytes, or “HaCaT” cells, and the exposure was Continuous over 24 hours.

For data set [9], the system named is human melanoma line A-375. The data set can be described thus: Apoptosis by annexin V-FITC/propidium iodide flow cytometry, A-375 melanoma. It counts as cell-based. As to the method: as §1, §2
Data set [10] deals with A375 melanoma cells in collagen matrix. In words: Dermal melanoma reconstruct, melanoma cells. It counts as cell-based, human. Conditions: 12.5 mM; A375 and CF3 cells embedded in a collagen matrix.
Excerpt: as §3

Setting [11] is: Example 6, concentration not given.

As to `COC(=O)[C@H](N)C(C)(C)S` [D-penicillamine methyl ester], the induction of apoptosis entry is “induction of apoptosis” in data set [1] and “stronger apoptotic effect” in data set [1] (listed as D-P—OCH3).

Regarding `CC(C)(S)[C@@H](N)C(=O)O` [D-penicillamine, 3-mercapto-D-valine], the induction of apoptosis result in data set [2] is “apoptosis was induced”; in data set [1], “induction of apoptosis”; in [3] (normal CF3 cells, continuous 24 hour exposure, D-penicillamine 10 mM) it was “no change”; in data set [4] (10 mM), “apoptosis inducers”; in data set [5] it was “apoptosis was induced”; in data set [6] (setting [11]) it was “induced apoptosis”. The induction of apoptosis result is listed as “apoptosis was induced” in [6] (continuous 24 hour exposure, D-penicillamine 10 mM); “apoptosis is indicated” in [8]; “apoptosis was induced” in data set [9] (A-375 cells, continuous 24 hour exposure, D-penicillamine 10 mM). Also, in data set [7], the “structure integrity of the fibroblast collagen network” value is “maintained the structure integrity of the fibroblast collagen network”. The “elimination of melanoma cells from dermal melanoma reconstruct” value in [10] is reported as “eliminated the melanoma cells”.

Consider `CCC(C)(S)[C@H](N)C(=O)O` (stereo partly drawn) [MEC, 3-methyl-3-ethyl-L-cysteine], for which the induction of apoptosis result in [3] (normal CF3 fibroblasts, 10 mM of MEC, 24 hours of exposure) is given as “none was observed”; in data set [9] (A375 cells, 10 mM of MEC, 24 hours of exposure) it was “Pronounced induction of apoptosis”.

Take `N=C(N)NN` [aminoguanidine]: the induction of apoptosis entry in data set [4] (25 mM) was “apoptosis inducers”; in data set [6] (setting [11]), “induced apoptosis”.
